According to the CombiSolv-Exp solvation set (Vermeire and Green 2021):

Test: solvent given as SMILES

CCBr
Details | solvation free energy, 298 K [kcal/mol]
in Brc1cccc2ccccc12 | -3.23
in C=CCCCCCCCCCCCCCC | -2.91
in CC(=O)N(C)C | -3.44
in CC(=O)OCc1ccccc1 | -3.32
in CC(C)CC(C)(C)C | -2.95
in CCC(C)=O | -3.53
in CCCCCC | -3.14
in CCCCCCC | -3.04
in CCCCCCCC | -2.99
in CCCCCCCCO | -2.88
in CCCCCl | -3.51
in CCCCO | -3.03
in CCO | -3.03
in CCOC(C)=O | -3.53
in CN(C)C=O | -3.22
in Cc1ccc(C)cc1 | -3.41
in ClC(Cl)(Cl)Cl | -3.45
in ClC(Cl)Cl | -3.77
in ClCCCl | -3.6
in Clc1ccccc1 | -3.51
in N#Cc1ccccc1 | -3.41
in O | -0.74
in O=C1CCCCC1 | -3.55
in c1ccc2ncccc2c1 | -3.31

FC(F)C(F)Oc1ccccc1 (stereo not drawn)
Details | solvation free energy, 298 K [kcal/mol]
in O | -1.29

Cc1nnc(NS(=O)(=O)c2ccc(N)cc2)s1
Details | solvation free energy, 298 K [kcal/mol]
in O | -19.3

CCCCCCN
Details | solvation free energy, 298 K [kcal/mol]
in CCCCCCC | -5.51
in O | -4

Cc1c[nH]c2ccccc12
Details | solvation free energy, 298 K [kcal/mol]
in O | -5.88

S
Details | solvation free energy, 298 K [kcal/mol]
in Brc1ccccc1 | -1.3
in C1CCC2CCCCC2C1 | -0.99
in CC1COC(=O)O1 | -1.49
in CC(=O)N(C)C | -2.25
in CC(C)=O | -1.9
in CCCCCCCCCCCCCCCC | -0.88
in CN1CCCC1=O | -2.2
in CN(C)C=O | -2.2
in CN(C)P(=O)(N(C)C)N(C)C | -2.64
in CO | -1.72
in COC(=O)CC#N | -1.35
in COCCOCCO | -1.91
in COCCOCCOC | -1.96
in COCCOCCOCCOC | -1.84
in COCCOCCOCCOCCOC | -1.97
in CS(C)=O | -2.04
in Clc1ccccc1 | -1.5
in Nc1ccccc1 | -1.7
in O | -0.65
in O=CN1CCOCC1 | -1.81
in OCCCOCCCO | -1.24
in OCCO | -1.17
in OCCOCCO | -1.34
in OCCOCCOCCO | -1.32
in OCc1ccccc1 | -1.35

c1ccc2c(c1)Nc1ccccc1S2
Details | solvation free energy, 298 K [kcal/mol]
in C1CCOC1 | -14.7
in C1COCCO1 | -14.4
in CC(C)(C)O | -12.7
in CC(C)CC(C)(C)C | -10.9
in CC(C)CC(C)O | -12.6
in CC(C)CCO | -12.8
in CC(C)CO | -12.6
in CC(C)O | -12.8
in CC(C)OC(C)C | -12.8
in CCC(C)CO | -12.7
in CCC(C)O | -12.8
in CCCC(C)CO | -12.8
in CCCC(C)O | -12.8
in CCCCC(CC)CO | -12.7
in CCCCCC | -11.1
in CCCCCCC | -11.2
in CCCCCCCC | -11.2
in CCCCCCCCCC | -11.2
in CCCCCCCCCCO | -13
in CCCCCCCCO | -13.1
in CCCCCCCO | -13.1
in CCCCCCO | -13.1
in CCCCCO | -13.1
in CCCCO | -13.1
in CCCCOCCCC | -12.7
in CCCO | -13.1
in CCCOC(C)=O | -13.9
in CCO | -13.2
in CCOCC | -13.5
in CO | -13.1
in COC(C)(C)C | -13.4

CC(C)CC(C)C
Details | solvation free energy, 298 K [kcal/mol]
in Brc1ccccc1 | -3.81
in C1CCCCC1 | -4.32
in C1CCOC1 | -4.15
in C1COCCO1 | -3.39
in C=CCCCC | -4.22
in C=CCCCCCC | -4.16
in C=CCCCCCCCC | -4.06
in C=CCCCCCCCCCCCCCC | -3.72
in CC1COC(=O)O1 | -2.21
in CC#N | -2.78
in CC(=O)N(C)C | -2.97
in CC(=O)O | -3.06
in CC(=O)c1ccccc1 | -3.18
in CC(C)=O | -3.45
in CC(C)CC(C)(C)C | -4.15
in CC(C)CCCC(C)CCCC(C)CCCCC(C)CCCC(C)CCCC(C)C | -3.68
in CC(C)CCO | -3.6
in CC(C)O | -3.45
in CC(C)OC(C)C | -4.18
in CCBr | -4.27
in CCC#N | -3.18
in CCC(C)=O | -3.66
in CCCC#N | -3.41
in CCCC(=O)OCC | -3.87
in CCCC(C)=O | -3.74
in CCCCC | -4.33
in CCCCCC | -4.35
in CCCCCC(C)=O | -3.75
in CCCCCCC | -4.22
in CCCCCCCC | -4.14
in CCCCCCCCC | -4.1
in CCCCCCCCCC | -4.06
in CCCCCCCCCCCC | -3.94
in CCCCCCCCCCCCCCCC | -3.85
in CCCCCCCCCCCCO | -3.49
in CCCCCCCCO | -3.57
in CCCCCCOC(C)=O | -3.87
in CCCCO | -3.5
in CCCCOC(C)=O | -3.81
in CCCCOCCCC | -4.13
in CCCO | -3.39
in CCN(CC)CC | -4.26
in CCO | -3.34
in CCOC(C)=O | -3.69
in CCOCC | -4.19
in CCOCCOCCOCC | -3.59
in CCOc1ccccc1 | -3.64
in CN1CCCC1=O | -2.82
in CN(C)C=O | -2.82
in CN(C)P(=O)(N(C)C)N(C)C | -3.23
in CNC=O | -2.49
in CO | -2.99
in COC(C)=O | -3.51
in COCCO | -2.84
in COc1ccccc1 | -3.57
in CS(C)=O | -2.03
in Cc1ccc(C)cc1 | -4.07
in Cc1ccccc1 | -4.07
in Cc1ccccn1 | -3.66
in ClC(Cl)(Cl)Cl | -4.29
in ClC(Cl)Cl | -4.17
in ClCCCl | -3.63
in ClCCl | -3.96
in Clc1ccccc1 | -4.04
in FC(F)(F)C(F)(F)C(F)(F)C(F)(F)C(F)(F)C(F)(F)C(F)(F)C(F)(F)F | -2.77
in FC(F)(F)C(F)(F)C(F)(F)C(F)(F)C(F)(F)C(F)(F)F | -2.85
in Fc1ccccc1 | -4.04
in ICI | -2.14
in N#Cc1ccccc1 | -3.27
in Nc1ccccc1 | -2.55
in O | 2.86
in O=C1CCCCC1 | -3.56
in O=C1CCCO1 | -2.36
in OCc1ccccc1 | -2.76
in S=C=S | -4.19
in c1ccccc1 | -4.03
in c1ccncc1 | -3.4

COC(=O)CCl
Details | solvation free energy, 298 K [kcal/mol]
in O | -4

C1CNC1
Details | solvation free energy, 298 K [kcal/mol]
in O | -5.56

O=Cc1ccncc1
Details | solvation free energy, 298 K [kcal/mol]
in O | -7

CCCCCCCCCOC(=O)c1ccccc1C(=O)OCCCC
Details | solvation free energy, 298 K [kcal/mol]
in O | -6.67

CCCN(CCC)c1c([N+](=O)[O-])cc(S(C)(=O)=O)cc1[N+](=O)[O-]
Details | solvation free energy, 298 K [kcal/mol]
in O | -7.98

Cc1ccc(N)cc1
Details | solvation free energy, 298 K [kcal/mol]
in CC(C)CC(C)(C)C | -6.29
in CCCCCC | -6.06
in CCCCCCC | -6.14
in CCCCCCCC | -6.29
in Cc1cccc(C)c1 | -7.26
in Cc1ccccc1C | -7.27

CCCOC(=O)c1ccccc1O
Details | solvation free energy, 298 K [kcal/mol]
in O | -3.66

CC(=O)OC1CCC2(C)C(=CCC3C2CCC2(C)C(C(C)CCCC(C)C)CCC32)C1 (stereo not drawn)
Details | solvation free energy, 298 K [kcal/mol]
in O | -5.48

Clc1cc(Cl)c2c(c1Cl)Oc1ccccc1O2
Details | solvation free energy, 298 K [kcal/mol]
in O | -4.05

Cc1ccccc1N(O)C(=O)c1ccc(Cl)cc1
Details | solvation free energy, 298 K [kcal/mol]
in O | -10.8

CC(N)C(=O)C1OS(=O)OCC2C1C1(Cl)C(Cl)=C(Cl)C2(Cl)C1(Cl)Cl (stereo not drawn)
Details | solvation free energy, 298 K [kcal/mol]
in CCCCCCCCO | -11.5
